Columns and labels:
Experiment in all cases: relative viability vs DMSO control (72 h) (fraction); higher = more viable cells
[1] = tested on: HT1080
Outline: (§1)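 A 5 µM positive control and 0.1% DMSO vehicle ran alongside sarcoma cell lines seeded in 384-well plates to reach 80–90% confluence. Serially diluted compound, 2.5 µl from source plates of 10 mM to 0.0002 mM, was added after 24 h, and the plates were held 72 h at 37 °C, 5% CO2. Relative viability was worked out from ATPLite readings as percent growth averaged over up to triplicate wells. The values were rescaled so that 1 is full and 0 is none.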

[2] = tested on: KHOS-NP
Outline: as §1

[3] = tested on: RD-ES
Outline: as §1

[4] = tested on: RD
Outline: as §1

[5] = tested on: VA-ES-BJ
Outline: as §1

CO[C@H]1C[C@@H]2CC[C@@H](C)[C@@](O)(O2)C(=O)C(=O)N2CCCC[C@H]2C(=O)O[C@H]([C@H](C)C[C@@H]2CC[C@@H](O)[C@H](OC)C2)CC(=O)[C@H](C)/C=C(\C)[C@@H](O)[C@@H](OC)C(=O)[C@H](C)C[C@H](C)/C=C/C=C/C=C/1C [Rapamycin]
relative viability
Conditions | [1] | [2] | [3] | [4] | [5]
0.00017 µM | 1.04 | 1.04 | 0.966 | 0.95 | 0.942
0.00051 µM | 1.03 | 1.05 | 0.962 | 0.87 | 0.814
0.00152 µM | 1.02 | 1.07 | 0.868 | 0.808 | 0.723
0.00457 µM | 0.97 | 1.07 | 0.833 | 0.702 | 0.584
0.01372 µM | 0.966 | 1.06 | 0.77 | 0.629 | 0.476
0.04115 µM | 0.972 | 1.06 | 0.712 | 0.579 | 0.451
0.1235 µM | 0.932 | 1.03 | 0.665 | 0.592 | 0.435
0.3704 µM | 0.917 | 1.04 | 0.677 | 0.573 | 0.427
1.111 µM | 0.905 | 1.05 | 0.687 | 0.588 | 0.444
3.333 µM | 0.869 | 1.02 | 0.647 | 0.605 | 0.446
10 µM | 0.851 | 0.882 | 0.611 | 0.568 | 0.43

C=CC(=O)Nc1cccc(Nc2nc(Nc3ccc(N4CCN(C(C)=O)CC4)cc3OC)ncc2C(F)(F)F)c1 [Rociletinib]
relative viability
Conditions | [1] | [2] | [3] | [4] | [5]
0.00017 µM | 1.07 | 1.09 | 0.965 | 1.04 | 1.04
0.00051 µM | 1.06 | 1.1 | 0.962 | 1.078 | 1.05
0.00152 µM | 1.05 | 1.113 | 0.961 | 1.08 | 1.02
0.00457 µM | 1.06 | 1.09 | 0.979 | 1.112 | 1.03
0.01372 µM | 1.04 | 1.09 | 0.967 | 1.11 | 0.981
0.04115 µM | 1.03 | 1.06 | 1 | 1.08 | 0.991
0.1235 µM | 1.06 | 1.09 | 0.937 | 1.11 | 0.994
0.3704 µM | 1.1 | 1.07 | 0.889 | 1.05 | 0.972
1.111 µM | 1.03 | 1.06 | 0.673 | 0.911 | 0.915
3.333 µM | 0.997 | 1.025 | 0.453 | 0.594 | 0.648
10 µM | 0.454 | 0.537 | 0.125 | 0.293 | 0.399

CN(C)C[C@@H]1CCn2cc(c3ccccc32)C2=C(C(=O)NC2=O)c2cn(c3ccccc23)CCO1 [Ruboxistaurin]
relative viability
Conditions | [1] | [2] | [3] | [4] | [5]
0.00017 µM | 1.06 | 1.09 | 0.981 | 1.09 | 0.988
0.00051 µM | 1.1 | 1.09 | 0.993 | 1.09 | 0.999
0.00152 µM | 1.05 | 1.06 | 0.9893 | 1.11 | 0.984
0.00457 µM | 1.04 | 1.07 | 0.988 | 1.12 | 0.988
0.01372 µM | 1.05 | 1.06 | 0.952 | 1.11 | 0.982
0.04115 µM | 1.06 | 1.08 | 0.978 | 1.1 | 0.996
0.1235 µM | 1.08 | 1.073 | 0.956 | 1.12 | 0.9734
0.3704 µM | 1.03 | 1.093 | 0.993 | 1.1 | 0.945
1.111 µM | 1.08 | 1.1 | 0.96 | 1.127 | 0.861
3.333 µM | 1.12 | 1.073 | 0.862 | 1.08 | 0.825
10 µM | 0.904 | 1.045 | 0.0404 | 0.857 | 0.651

CN1CCN(CCOc2cc(OC3CCOCC3)c3c(Nc4c(Cl)ccc5c4OCO5)ncnc3c2)CC1 [Saracatinib]
relative viability
Conditions | [1] | [2] | [3] | [4] | [5]
0.00017 µM | 1.05 | 1.094 | 0.975 | 1.05 | 1.05
0.00051 µM | 1.04 | 1.1 | 1 | 1.08 | 1.07
0.00152 µM | 1.05 | 1.08 | 0.99 | 1.096 | 1.07
0.00457 µM | 1.01 | 1.07 | 1.01 | 1.08 | 1.11
0.01372 µM | 1.022 | 1.07 | 0.979 | 1.07 | 1.11
0.04115 µM | 1.02 | 1.061 | 0.982 | 1.01 | 1.14
0.1235 µM | 1.053 | 1.06 | 0.966 | 0.948 | 1.14
0.3704 µM | 1.04 | 1.05 | 0.935 | 0.836 | 1.12
1.111 µM | 1.01 | 0.994 | 0.898 | 0.786 | 0.941
3.333 µM | 0.952 | 0.862 | 0.858 | 0.692 | 0.805
10 µM | 0.859 | 0.693 | 0.735 | 0.642 | 0.681

CNC(=O)c1cc(Oc2ccc(NC(=O)Nc3ccc(Cl)c(C(F)(F)F)c3)cc2)ccn1 [Sorafenib]
relative viability
Conditions | [1] | [2] | [3] | [4] | [5]
0.00017 µM | 1.06 | 1.09 | 0.972 | 1.11 | 1.04
0.00051 µM | 1.06 | 1.09 | 0.98 | 1.11 | 1.07
0.00152 µM | 1.1 | 1.1 | 0.963 | 1.09 | 1.07
0.00457 µM | 1.08 | 1.09 | 0.992 | 1.12 | 1.06
0.01372 µM | 1.07 | 1.08 | 1 | 1.09 | 1.07
0.04115 µM | 1.07 | 1.1 | 0.987 | 1.12 | 1.09
0.1235 µM | 1.08 | 1.103 | 0.987 | 1.14 | 1.11
0.3704 µM | 1.12 | 1.08 | 0.992 | 1.13 | 1.143
1.111 µM | 1.102 | 0.993 | 0.994 | 1.04 | 1.15
3.333 µM | 0.94 | 0.534 | 0.903 | 0.9 | 1.14
10 µM | 0.0932 | 0.375 | 0.274 | 0.504 | 0.436

CCN(c1cc(-c2ccc(CN3CCOCC3)cc2)cc(C(=O)NCc2c(C)cc(C)[nH]c2=O)c1C)C1CCOCC1 [Tazemetostat]
relative viability
Conditions | [1] | [2] | [3] | [4] | [5]
0.00017 µM | 1.09 | 1.05 | 0.984 | 0.988 | 1.038
0.00051 µM | 1.1 | 1.06 | 1 | 1 | 1.046
0.00152 µM | 1.08 | 1.06 | 0.989 | 1.04 | 1.05
0.00457 µM | 1.09 | 1.07 | 0.965 | 1.04 | 1.05
0.01372 µM | 1.085 | 1.04 | 0.968 | 1.05 | 1.034
0.04115 µM | 1.07 | 1.04 | 1.01 | 1.03 | 1.06
0.1235 µM | 1.09 | 1.015 | 0.975 | 1.06 | 1.06
0.3704 µM | 1.1 | 0.997 | 0.971 | 1.03 | 1.07
1.111 µM | 1.071 | 0.98 | 1 | 1.04 | 1.06
3.333 µM | 1.08 | 0.998 | 0.988 | 1.04 | 1.08
10 µM | 1.01 | 0.934 | 0.98 | 1.03 | 1.07

Cc1cccc(-c2[nH]c(CNc3ccccc3F)nc2-c2ccc3ncnn3c2)n1 [Vactosertib]
relative viability
Conditions | [1] | [2] | [3] | [4] | [5]
0.00017 µM | 1.02 | 1.05 | 0.9791 | 1.07 | 1
0.00051 µM | 1 | 1.05 | 0.97 | 1.06 | 1
0.00152 µM | 0.967 | 1.05 | 0.974 | 1.06 | 1.006
0.00457 µM | 1.01 | 1.04 | 0.958 | 1.09 | 1.02
0.01372 µM | 1.042 | 1.03 | 0.97 | 1.07 | 1.026
0.04115 µM | 1.01 | 1.02 | 0.973 | 1.09 | 1.04
0.1235 µM | 1.04 | 1.046 | 0.971 | 1.07 | 1.038
0.3704 µM | 1.05 | 1.05 | 0.964 | 1.09 | 1.08
1.111 µM | 1.02 | 1.05 | 0.945 | 1.09 | 1.11
3.333 µM | 1.02 | 1.05 | 0.925 | 1.07 | 1.11
10 µM | 1.01 | 1.011 | 0.865 | 1.09 | 1.11

C[C@@H]1COC(Nc2ccc3ncnc(Nc4ccc(OCc5nccs5)c(Cl)c4)c3c2)=N1 [Varlitinib]
relative viability
Conditions | [1] | [2] | [3] | [4] | [5]
0.00017 µM | 1.06 | 1.03 | 0.968 | 0.983 | 1.06
0.00051 µM | 1.03 | 1.05 | 1.01 | 0.984 | 1.06
0.00152 µM | 1.05 | 1.06 | 0.957 | 0.997 | 1.05
0.00457 µM | 1.05 | 1.05 | 0.985 | 1.02 | 1.04
0.01372 µM | 1.04 | 1.06 | 0.975 | 0.998 | 1.08
0.04115 µM | 1.06 | 1.05 | 0.991 | 1.02 | 1.07
0.1235 µM | 1 | 1.07 | 1 | 1.05 | 1.12
0.3704 µM | 1.01 | 1.06 | 0.948 | 1 | 1.09
1.111 µM | 1.02 | 1.04 | 0.961 | 1.04 | 1.05
3.333 µM | 0.99 | 1.04 | 0.973 | 1.05 | 1.06
10 µM | 0.97 | 0.94 | 0.89 | 1.05 | 0.96

CC[C@@H]1C(=O)N(C)c2cnc(Nc3ccc(C(=O)N[C@H]4CC[C@H](N5CCN(CC6CC6)CC5)CC4)cc3OC)nc2N1C(C)C [Volasertib]
relative viability
Conditions | [1] | [2] | [3] | [4] | [5]
0.00017 µM | 1.057 | 1.07 | 1.02 | 1.132 | 1.04
0.00051 µM | 1.06 | 1.06 | 1 | 1.12 | 1.04
0.00152 µM | 1.06 | 1.07 | 1.01 | 1.129 | 1.07
0.00457 µM | 1.04 | 1.08 | 1.028 | 1.14 | 1.06
0.01372 µM | 1.03 | 1.09 | 0.987 | 1.07 | 1.04
0.04115 µM | 0.9978 | 1.01 | 0.447 | 0.363 | 0.486
0.1235 µM | 0.239 | 0.471 | 0.0248 | 0.212 | 0.234
0.3704 µM | 0.13 | 0.276 | 0.0217 | 0.18 | 0.108
1.111 µM | 0.139 | 0.222 | 0.0279 | 0.169 | 0.0943
3.333 µM | 0.0909 | 0.184 | 0.0346 | 0.119 | 0.074
10 µM | 0.00783 | 0.0214 | 0.0126 | 0.0206 | -0.00633

— the supplement of paper PMC10883282
